Test results as given in patent publication US20230263742A1, “A LIPID” (Stemirna Therapeutics Co., Ltd., priority 2021, published 2023).

Assays:
cells = test: Cytotoxicity, CCK-8 cell viability; assay type: cell-based; conditions: 200 ng LNP, 24 h, CCK-8, vs cells blank
Procedure: Evaluation method of cytotoxicity: 200 ng of LNP samples were mixed with cells and incubated for 24 h, then the viability was detected using CCK-8 cell viability detection kit. 10 μl of CCK-8 detection reagent was added to the transfected cells and the OD value was detected using a microplate reader at a detection wavelength of 450 nm. The cell viability percentage is obtained by comparing the OD value with that of the cells blank.

C2C12 cells = test: In vitro cell Luc expression, C2C12; assay type: cell-based; conditions: 100 ng Luc mRNA-LNP, 24 h
Procedure: (§1) In vitro cell expression evaluation method: C2C12 cells, HepG2 cells, A20 cells were cultured, and 100,000 cells per well were plated on a 96-well plate. 100 ng of LNP samples were mixed with the cells and incubated for 24 hours (n=3), and then the expression was detected using luciferase quantitative kit 24 h after administration.

HepG2 cells = test: In vitro cell Luc expression, HepG2; assay type: cell-based; conditions: 100 ng Luc mRNA-LNP, 24 h
Procedure: as §1

A20 cells = test: In vitro cell Luc expression, A20; assay type: cell-based; conditions: 100 ng Luc mRNA-LNP, 24 h
Procedure: as §1

Balb/C mice [1] = test: In vivo Luc expression after tail vein injection of Luc mRNA-LNP; conditions: 5 μg Luc mRNA-LNP tail vein, 6 hours
Procedure: In vivo expression evaluation method: 5 μg Luc (luciferase) mRNA-LNP solution of SW-II-118, SW-120, or SW-121 were injected into the tail vein of Balb/C mice. 6 hours after the administration, the mice are injected 0.15 mg/kg of […] substrate intraperitoneally. Within 15 minutes after the injection of the substrate, the fluorescence signal intensity was tested under a small animal in vivo imaging instrument.

Balb/C mice [2] = test: In vivo Luc expression after intramuscular injection, compared with MC3 (Example 4); conditions: 5 μg Luc mRNA-LNP (DSPC) intramuscularly, Balb/C mice n=3, 6 hours
Procedure: The mRNA nanoparticle compositions of SW-II-118, SW-120, and SW-121 were prepared according to the method provided in Example 3. The ratios of the lipids were 50:10:38.5:1.5 mol % for cationic lipid: DSPC: cholesterol: PEG-DMG. The cationic lipid MC3 was a current standard in the art. Accordingly, the standard MC3 formulation including 50 mol % MC3, 10 mol % DSPC, 38.5 mol % cholesterol, and 1.5 mol % PEG-DMG was used as a reference for this study.
5 μg of Luc mRNA-LNP of MC3, SW-II-118, SW-II-120, or SW-II-121 was intramuscularly injected into Balb/C mice (n=3). 6 hours after the administration, the mice were injected intraperitoneally with 0.15 mg/kg […] substrate. 15 minutes after the injection of the substrate, the fluorescence signal intensity was tested under a small animal in vivo imaging instrument.

Balb/C mice [3] = test: Luc expression in injection site and liver site after intramuscular administration (Example 5); assay type: in vivo; conditions: 5 μg Luc mRNA-LNP (DSPC) intramuscularly, Balb/C mice n=3, 6 h
Procedure: Further bioluminescence studies were performed to investigate the delivery efficiency of nanoparticle compositions including various lipid compounds according to the present invention. The formulations containing reference cationic lipid M62, M63, M118, and M119 (corresponding to Compound 62, 63, 118, and 119 in PCT/US2018/022717 (WO2018/170306), respectively) were evaluated for comparison. Nanoparticle compositions including DSPC as an optimized phospholipid, cholesterol as a structural lipid, PEG-DMG as a PEG lipid, an RNA, and a compound above mentioned were prepared according to or via methods similar to those described in Examples 1 and 2. The ratios of the lipids were 50:10:38.5:1.5 mol % for the lipid of the present invention: DSPC: cholesterol: PEG-DMG. 5 μg of LNP solution containing luciferase mRNA was administered intramuscularly to Balb/C mice (n=3). 6 hours after administration, mice were injected intraperitoneally with 0.15 mg/kg of D-luciferin substrate. Within 15 minutes after the injection of the substrate, the fluorescence signal intensity in injection site and liver site were tested under a small animal in vivo imaging instrument. Tables 3-4 summarize the fluorescence signal intensity of the nanoparticle compositions including present invention lipids and the reference compounds in injection site and liver site.

CCCCCCCCC(CCCCCCCC)OC(=O)CCCCCCCN(CCO)CCCCCCCC(=O)OCCc1ccc(CCCC)cc1 [SW-II-118]
Viability (%) (cells; phospholipid DAPC): 104.0% | Viability (%) (cells; phospholipid DMPE): 110.8% | Viability (%) (cells; phospholipid DOPE): 98.7% | Viability (%) (cells; phospholipid DPPC): 105.4% | Viability (%) (cells; phospholipid DPPE): 162.7% | Viability (%) (cells; phospholipid DSPC): 103.0% | Viability (%) (cells; phospholipid DSPE): 113.9% | C2C12 cell, in vitro expression (C2C12 cells; phospholipid DAPC): 32703.5 | C2C12 cell, in vitro expression (C2C12 cells; phospholipid DMPE): 218015.5 | C2C12 cell, in vitro expression (C2C12 cells; phospholipid DOPE): 300431.5 | C2C12 cell, in vitro expression (C2C12 cells; phospholipid DPPC): 260091 | C2C12 cell, in vitro expression (C2C12 cells; phospholipid DPPE): 1254.5 | C2C12 cell, in vitro expression (C2C12 cells; phospholipid DSPC): 80658 | C2C12 cell, in vitro expression (C2C12 cells; phospholipid DSPE): 46290.5 | HepG2 cell, in vitro expression (HepG2 cells; phospholipid DAPC): 6674 | HepG2 cell, in vitro expression (HepG2 cells; phospholipid DMPE): 17608.5 | HepG2 cell, in vitro expression (HepG2 cells; phospholipid DOPE): 17838.5 | HepG2 cell, in vitro expression (HepG2 cells; phospholipid DPPC): 31083 | HepG2 cell, in vitro expression (HepG2 cells; phospholipid DPPE): 86 | HepG2 cell, in vitro expression (HepG2 cells; phospholipid DSPC): 11247.5 | HepG2 cell, in vitro expression (HepG2 cells; phospholipid DSPE): 3053 | A20 cell, in vitro expression (A20 cells; phospholipid DAPC): 5337 | A20 cell, in vitro expression (A20 cells; phospholipid DMPE): 34438 | A20 cell, in vitro expression (A20 cells; phospholipid DOPE): 2295 | A20 cell, in vitro expression (A20 cells; phospholipid DPPC): 12326.5 | A20 cell, in vitro expression (A20 cells; phospholipid DPPE): 1627.5 | A20 cell, in vitro expression (A20 cells; phospholipid DSPC): 9068 | A20 cell, in vitro expression (A20 cells; phospholipid DSPE): 3748 | In vivo expression (Balb/C mice [1]; phospholipid DAPC): 8658333.3 p/sec/cm^2/sr | In vivo expression (Balb/C mice [1]; phospholipid DMPE): 23780.0 p/sec/cm^2/sr | In vivo expression (Balb/C mice [1]; phospholipid DOPE): 38066666.7 p/sec/cm^2/sr | In vivo expression (Balb/C mice [1]; phospholipid DPPC): 34323333.3 p/sec/cm^2/sr | In vivo expression (Balb/C mice [1]; phospholipid DPPE): 25176.7 p/sec/cm^2/sr | In vivo expression (Balb/C mice [1]; phospholipid DSPC): 40156666.7 p/sec/cm^2/sr | In vivo expression (Balb/C mice [1]; phospholipid DSPE): 25383333.3 p/sec/cm^2/sr | Luc expression in liver site compared with injection site (FIG. 2) (Balb/C mice [2]): higher than that in injection site | in vivo Luc expressions (FIG. 2) (Balb/C mice [2]; compared with MC3): higher than that of MC3 | Luc expression in injection site, I.M. injection site, 6 h (ratio relative to SW-II-134-3 set as 1) (Balb/C mice [3]): 1.450 | Luc expression in liver site, Liver site upon I.M., 6 h (ratio relative to SW-II-137-1 set as 1) (Balb/C mice [3]): 2.234
